IC50 and Ki data for 31 molecules are collected here from patent US9073876B2, “Flap modulators” (JANSSEN PHARMACEUTICA NV, priority 2013, dated 2015).

Test [1] has as its system leukotriene pathway in human whole blood (LTB4 levels). The test is described as follows: Human whole blood assay (LTB4). The class given is cell-based. The settings on record: human whole blood diluted 1:1 in RPMI, stimulated with calcium ionophore A23187; single replicate. The procedure:
The ability of the compounds of the present invention to treat a FLAP-mediated disease and/or disorder, or associated symptoms or complications thereof, was determined using the following procedures. Binding assay data represent the average value obtained from two different assay plates, with samples run in duplicate on each plate. Human whole blood assay data represent a single replicate on an assay plate using whole blood from at least one healthy donor.
An in vitro cellular assay was performed using human whole blood collected in heparin-containing tubes, which was used to test the ability of compounds to modulate the leukotriene pathway in human whole blood. The blood was diluted 1:1 in RPMI medium, pre-incubated for 15 min at 37° Celsius with test compounds at various concentrations, and then stimulated with calcium ionophore, A23187 (7 μg/mL), for 30 min at 37° Celsius. The samples were then centrifuged and plasma was removed. The plasma was diluted in assay buffer and LTB4 levels were measured using a commercial kit (Enzo Life Sciences). The concentration of each compound that was required for half-maximal inhibition (modulation) of recombinant enzyme activity (IC50) was calculated by a 4-parameter equation using the program GraphPad Prism (GraphPad software).

The next test concerns the target human FLAP (Homo sapiens (Human), UniProt P20292). Briefly: FLAP binding assay (HTRF). To be noted: human FLAP-containing membranes, HTRF format; average of two assay plates, duplicates; read-out: FLAP Binding wild type HTRF Ki. Summed up:
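Samples were run in duplicate on each of two plates and the plate results averaged. Read-out is the HTRF signal ratio.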

Chain of human FLAP (P20292 whole entry): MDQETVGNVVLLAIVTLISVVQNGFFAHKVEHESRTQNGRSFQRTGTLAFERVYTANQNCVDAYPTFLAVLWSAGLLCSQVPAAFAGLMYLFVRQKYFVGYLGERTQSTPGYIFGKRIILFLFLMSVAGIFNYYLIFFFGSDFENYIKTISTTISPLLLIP

Consider `Nc1cnc(-c2ccc(C3CCC3)c(OCc3cccc(-c4nnn[nH]4)c3)c2F)cn1` [Example 21, 5-(4-Cyclobutyl-2-fluoro-3-{[3-(1H-tetrazol-5-yl)benzyl]oxy}phenyl)pyrazin-2-amine], for which, in test [1], the IC50 worked out at 4130 nM. The Ki on human FLAP came out at 8 nM.
Turning to `Nc1cnc(-c2ccc(C3CCC3)c(OCc3ccccc3-c3nnn[nH]3)c2F)cn1` [Example 22, 5-(4-Cyclobutyl-2-fluoro-3-{[2-(1H-tetrazol-5-yl)benzyl]oxy}phenyl)pyrazin-2-amine], the IC50 in test [1] was > 10000 nM. Further, the inhibition constant (Ki) on human FLAP was 6 nM.
In the same order, the values of `Nc1cnc(-c2ccc(C3CCC3)c(OCc3ccc(CC(=O)O)cc3)c2F)cn1` [Example 23, (4-{[3-(5-Aminopyrazin-2-yl)-6-cyclobutyl-2-fluorophenoxy]methyl}phenyl)acetic acid] are 363 nM and 2 nM.
Regarding `Nc1cnc(-c2ccc(C3CCC3)c(OCc3ccccn3)c2F)cn1` [Example 24, 5-[4-Cyclobutyl-2-fluoro-3-(pyridin-2-ylmethoxy)phenyl]pyrazin-2-amine], the half-inhibitory concentration (IC50) in test [1] is > 10000 nM. Moreover, the Ki on human FLAP turned out to be 100 nM.
Consider `CN(C)S(=O)(=O)c1ccc(COc2c(C3CCC3)ccc(-c3cnc(N)cn3)c2F)cc1` [Example 25, 4-{[3-(5-Aminopyrazin-2-yl)-6-cyclobutyl-2-fluorophenoxy]methyl}-N,N-dimethylbenzenesulfonamide], for which the concentration for half-maximal inhibition (IC50) in test [1] came out at 576 nM. Further, at human FLAP, the Ki was 12 nM.
Consider `Nc1cnc(-c2ccc(C3CCC3)c(OCc3ccc(S(N)(=O)=O)cc3)c2F)cn1` [Example 26, 4-{[3-(5-Aminopyrazin-2-yl)-6-cyclobutyl-2-fluoro-phenoxy]methyl}benzenesulfonamide], for which, in test [1], the half-inhibitory concentration (IC50) was > 10000 nM. Besides, the inhibitory constant (Ki) on human FLAP is 20 nM.
In the same order, the values of `CNS(=O)(=O)c1ccc(COc2c(C3CCC3)ccc(-c3cnc(N)cn3)c2F)cc1` [Example 27, 4-{[3-(5-Aminopyrazin-2-yl)-6-cyclobutyl-2-fluorophenoxy]methyl}-N-methylbenzenesulfonamide] are 805 nM and 6 nM.
In the same order, the values of `Nc1cnc(-c2ccc(C3CCC3)c(OCc3cccc(F)c3)c2F)cn1` [Example 29, 5-{4-Cyclobutyl-2-fluoro-3-[(3-fluorobenzyl)oxy]phenyl}pyrazin-2-amine] are 1060 nM and 224 nM.
As to `Nc1cnc(-c2ccc(C3CCC3)c(OCc3c(F)cccc3F)c2F)cn1` [Example 31, 5-{4-Cyclobutyl-3-[(2,6-difluorobenzyl)oxy]-2-fluorophenyl}pyrazin-2-amine], the half-maximal inhibitory concentration (IC50) in test [1] is 1960 nM. Further, the inhibitory constant (Ki) on human FLAP was 170 nM.
Consider `Nc1cnc(-c2ccc(C3CCC3)c(OCc3ccccc3Cl)c2F)cn1` [Example 34, 5-{3-[(2-Chlorobenzyl)oxy]-4-cyclobutyl-2-fluorophenyl}pyrazin-2-amine], for which the half-maximal inhibitory concentration (IC50) in test [1] is 1570 nM. On human FLAP, the inhibitory constant (Ki) was 304 nM.
As to `Nc1cnc(-c2ccc(C3CCC3)c(OCc3cccc(Cl)c3)c2F)cn1` [Example 35, 5-{3-[(3-Chlorobenzyl)oxy]-4-cyclobutyl-2-fluorophenyl}pyrazin-2-amine], in test [1], the IC50 was 1140 nM. Further, the inhibitory constant (Ki) on human FLAP turned out to be 173 nM.
Regarding `Nc1cnc(-c2ccc(C3CCC3)c(OCc3ccc(Cl)cc3)c2F)cn1` [Example 36, 5-{3-[(4-Chlorobenzyl)oxy]-4-cyclobutyl-2-fluorophenyl}pyrazin-2-amine], the IC50 in test [1] stood at 2540 nM. Further, the Ki on human FLAP stood at 220 nM.
On to `Nc1cnc(-c2ccc(C3CCC3)c(OCc3c(Cl)cccc3Cl)c2F)cn1` [Example 37, 5-{4-Cyclobutyl-3-[(2,6-dichlorobenzyl)oxy]-2-fluorophenyl}pyrazin-2-amine], for which, in test [1], the concentration for half-maximal inhibition (IC50) turned out to be 2500 nM. For the same molecule, the Ki at human FLAP is 250 nM.
For `Cc1ccc(COc2c(C3CCC3)ccc(-c3cnc(N)cn3)c2F)cc1C` [Example 41, 5-{4-Cyclobutyl-3-[(3,4-dimethylbenzyl)oxy]-2-fluorophenyl}pyrazin-2-amine], the IC50 in test [1] was 1350 nM. Moreover, the inhibition constant Ki at human FLAP turned out to be 250 nM.
In the same order, the values of `Nc1cnc(-c2ccc(C3CCC3)c(OCc3cc(F)ccc3Cl)c2F)cn1` [Example 45, 5-{3-[(2-Chloro-5-fluorobenzyl)oxy]-4-cyclobutyl-2-fluorophenyl}pyrazin-2-amine] are 720 nM and 193 nM.
For `Nc1cnc(-c2ccc(C3CCC3)c(OCc3ccccc3C(=O)O)c2F)cn1` [Example 46, 2-{[3-(5-Aminopyrazin-2-yl)-6-cyclobutyl-2-fluorophenoxy]methyl}benzoic acid], the concentration for half-maximal inhibition (IC50) in test [1] is 5620 nM. For the same molecule, at human FLAP, the Ki worked out at 8 nM.
In the case of `Cn1ccc(COc2c(C3CCC3)ccc(-c3cnc(N)cn3)c2F)n1` [Example 47, 5-{4-Cyclobutyl-2-fluoro-3-[(1-methyl-1H-pyrazol-3-yl)methoxy]phenyl}pyrazin-2-amine], the IC50 in test [1] turned out to be 300 nM. For the same molecule, the inhibition constant (Ki) at human FLAP was found to be 42 nM.
In the same order, the values of `Cc1ccnc(Oc2c(C3CCC3)ccc(-c3cnc(N)cn3)c2F)n1` [Example 69, 5-{4-cyclobutyl-2-fluoro-3-[(4-methylpyrimidin-2-yl)oxy]phenyl}pyrazin-2-amine] are 73.9 nM and 30 nM.
In the same order, the values of `Nc1cnc(-c2ccc(C3CCC3)c(OCC3CC3)c2F)cn1` [Example 72, 5-[4-Cyclobutyl-3-(cyclopropylmethoxy)-2-fluorophenyl]pyrazin-2-amine] are 737 nM and 18 nM.
Regarding `COc1ccc(S(F)(F)(F)(F)F)cc1COc1c(C2CCC2)ccc(-c2cnc(N)cn2)c1F` [Example 76, 5-(4-Cyclobutyl-2-fluoro-3-{[2-methoxy-5-(pentafluoro-lambda~6~- sulfanyl)benzyl]oxy}phenyl)pyrazin-2-amine], the concentration for half-maximal inhibition (IC50) in test [1] stood at 1770 nM. For the same molecule, the Ki at human FLAP amounted to 250 nM.
In the same order, the values of `Nc1cnc(-c2ccc(C3CCC3)c(OCc3ccc(S(F)(F)(F)(F)F)cc3F)c2F)cn1` [Example 78, 5-(4-Cyclobutyl-2-fluoro-3-{[2-fluoro-4-(pentafluoro-lambda~6~- sulfanyl)benzyl]oxy}phenyl)pyrazin-2-amine] are 1290 nM and 173 nM.
On to `Nc1cnc(-c2ccc(C3CCC3)c(OCc3ccc(S(F)(F)(F)(F)F)cc3)c2F)cn1` [Example 79, 5-(4-Cyclobutyl-2-fluoro-3-{[4-(pentafluoro-lambda~6~- sulfanyl)benzyl]oxy}phenyl)pyrazin-2-amine], for which the IC50 in test [1] is 2230 nM. Further, the inhibition constant Ki at human FLAP is 250 nM.
In the case of `Nc1cnc(-c2ccc(C3CCC3)c(OCc3cccc(S(F)(F)(F)(F)F)c3)c2F)cn1` [Example 80, 5-(4-Cyclobutyl-2-fluoro-3-{[3-(pentafluoro-lambda~6~- sulfanyl)benzyl]oxy}phenyl)pyrazin-2-amine], in test [1], the half-maximal inhibitory concentration (IC50) was 3290 nM. On human FLAP, the Ki came to 304 nM.
Take `Nc1cnc(-c2ccc(C3CCC3)c(OCc3ccccc3)c2F)cn1` [Example 83, 5-[3-(Benzyloxy)-4-cyclobutyl-2-fluorophenyl]-pyrazin-2-amine]: the IC50 in test [1] was 605 nM. Besides, the Ki at human FLAP worked out at 37 nM.
As to `Nc1cnc(-c2ccc(C3CCC3)c(OCCc3ccc(C(=O)O)cc3)c2F)cn1` [Example 84, 4-{2-[3-(5-Aminopyrazin-2-yl)-6-cyclobutyl-2-fluorophenoxy]ethyl}benzoic acid], the IC50 in test [1] came to 886 nM. Besides, at human FLAP, the Ki came to 70 nM.
In the case of `Cc1cc(N)nc(Oc2c(C3CCC3)ccc(-c3cnc(N)cn3)c2F)n1` [Example 86, 2-[3-(5-Aminopyrazin-2-yl)-6-cyclobutyl-2-fluorophenoxy]-6-methylpyrimidin-4-amine], in test [1], the IC50 turned out to be 35.1 nM. The Ki on human FLAP was 5 nM.
In the same order, the values of `Nc1cnc(-c2ccc(C3CCC3)c(Oc3nccc(-c4ccccc4)n3)c2F)cn1` [Example 87, 5-{4-Cyclobutyl-2-fluoro-3-[(4-phenylpyrimidin-2-yl)oxy]phenyl}pyrazin-2-amine] are 6.7 nM and 1 nM.
With `CSc1ccnc(Oc2c(C3CCC3)ccc(-c3cnc(N)cn3)c2F)n1` [Example 88, 5-(4-Cyclobutyl-2-fluoro-3-{[4-(methylsulfanyl)pyrimidin-2-yl]oxy}phenyl)pyrazin-2-amine], in test [1], the IC50 stood at 36.1 nM. Also, the Ki at human FLAP stood at 4 nM.
On to `Cc1cc(C)nc(Oc2c(C3CCC3)ccc(-c3cnc(N)cn3)c2F)n1` [Example 89, 5-{4-Cyclobutyl-3-[(4,6-dimethylpyrimidin-2-yl)oxy]-2-fluorophenyl}pyrazin-2-amine], for which the half-maximal inhibitory concentration (IC50) in test [1] worked out at 22.2 nM. Also, the inhibition constant Ki at human FLAP worked out at 4 nM.
Consider `Nc1cnc(-c2ccc(C3CCC3)c(Oc3nccc(-c4cccs4)n3)c2F)cn1` [Example 91, 5-{4-Cyclobutyl-2-fluoro-3-[(4-thiophen-2-ylpyrimidin-2-yl)oxy]phenyl}pyrazin-2-amine], for which the IC50 in test [1] was found to be 4.8 nM. For the same molecule, the Ki at human FLAP was 1 nM.
Consider `COc1ccnc(Oc2c(C3CCC3)ccc(-c3cnc(N)cn3)c2F)n1` [Example 93, 5-{4-Cyclobutyl-2-fluoro-3-[(4-methoxypyrimidin-2-yl)oxy]phenyl}pyrazin-2-amine], for which the IC50 in test [1] stood at 30.8 nM. The Ki at human FLAP came to 3 nM.
